Tests used:
[1] = Total plasma concentration in CD1 mouse at 30 mg/kg, po measured at 20 mins by reversed-phase UPLC/MS analysis; type: ADME, organism-based; set-up: dose 30 mg/kg, route oral
[2] = Total plasma concentration in CD1 mouse at 50 mg/kg, po measured at 20 mins by reversed-phase UPLC/MS analysis; type: ADME, organism-based; set-up: dose 50 mg/kg, route oral
[3] = Total plasma concentration in CD1 mouse at 30 mg/kg, po measured at 60 mins by reversed-phase UPLC/MS analysis; type: ADME, organism-based; set-up: dose 30 mg/kg, route oral
[4] = Total plasma concentration in CD1 mouse at 50 mg/kg, po measured at 60 mins by reversed-phase UPLC/MS analysis; type: ADME, organism-based; set-up: dose 50 mg/kg, route oral
[5] = Half life in CD1 mouse at 30 mg/kg, po; type: ADME, organism-based; set-up: dose 30 mg/kg, route oral; conditions: in vivo
[6] = Tmax in CD1 mouse at 30 mg/kg, po; type: ADME, organism-based; set-up: dose 30 mg/kg, route oral; conditions: in vivo
[7] = Cmax in CD1 mouse at 30 mg/kg, po; type: ADME, organism-based; set-up: dose 30 mg/kg, route oral; conditions: in vivo
Mus musculus [8] = experiment: AUC in CD1 mouse at 30 mg/kg, po; type: ADME, organism-based, Plasma; set-up: dose 30 mg/kg, route oral; conditions: in vivo
Mus musculus [9] = experiment: AUC in CD1 mouse at 10 mg/kg, iv; type: ADME, organism-based, Plasma; set-up: dose 10 mg/kg, route intravenous; conditions: in vivo
[10] = Oral bioavailability in CD1 mouse at 30 mg/kg; type: ADME, organism-based; conditions: in vivo
Mus musculus [11] = experiment: Total plasma concentration in CD1 mouse assessed as (2R,3R,4R,5R,6R)-5-acetamido-4-amino-2,3-difluoro-6-((1R,2R)-1,2,3-trihydroxypropyl)tetrahydro-2H-pyran-2-carboxylic acid at 30 mg/kg, po measured at 20 mins by reversed-phase UPLC/MS analysis; type: ADME, organism-based; set-up: dose 30 mg/kg, route oral; conditions: in vivo
Mus musculus [12] = experiment: Total plasma concentration in CD1 mouse assessed as (2R,3R,4R,5R,6R)-5-acetamido-4-amino-2,3-difluoro-6-((1R,2R)-1,2,3-trihydroxypropyl)tetrahydro-2H-pyran-2-carboxylic acid at 30 mg/kg, po measured at 60 mins by reversed-phase UPLC/MS analysis; type: ADME, organism-based; set-up: dose 30 mg/kg, route oral; conditions: in vivo, 1 h
[13] = Stability in simulated gastric fluid at 10 uM at pH 1 measured at 15 mins; type: ADME; conditions: read-out: Stability
[14] = Stability in simulated gastric fluid at 10 uM at pH 1 measured at 60 mins; type: ADME; conditions: read-out: Stability
[15] = Stability in simulated gastric fluid at 10 uM at pH 4 measured at 15 mins; type: ADME; conditions: read-out: Stability
[16] = Stability in simulated gastric fluid at 10 uM at pH 4 measured at 60 mins; type: ADME; conditions: read-out: Stability
[17] = Metabolic stability in mouse plasma at 10 uM measured at 15 mins; type: ADME, cell-free; conditions: read-out: Stability
[18] = Metabolic stability in mouse plasma at 10 uM measured at 60 mins; type: ADME, cell-free; conditions: read-out: Stability
Mus musculus [19] = experiment: Tmax in CD1 mouse assessed as (2R,3R,4R,5R,6R)-5-acetamido-4-amino-2,3-difluoro-6-((1R,2R)-1,2,3-trihydroxypropyl)tetrahydro-2H-pyran-2-carboxylic acid at 30 mg/kg, po; type: ADME, organism-based; set-up: dose 30 mg/kg, route oral; conditions: in vivo
Mus musculus [20] = experiment: Cmax in CD1 mouse assessed as (2R,3R,4R,5R,6R)-5-acetamido-4-amino-2,3-difluoro-6-((1R,2R)-1,2,3-trihydroxypropyl)tetrahydro-2H-pyran-2-carboxylic acid at 30 mg/kg, po; type: ADME, organism-based; set-up: dose 30 mg/kg, route oral; conditions: in vivo
Mus musculus [21] = experiment: AUC in CD1 mouse assessed as (2R,3R,4R,5R,6R)-5-acetamido-4-amino-2,3-difluoro-6-((1R,2R)-1,2,3-trihydroxypropyl)tetrahydro-2H-pyran-2-carboxylic acid at 30 mg/kg, po; type: ADME, organism-based, Plasma; set-up: dose 30 mg/kg, route oral; conditions: in vivo
Mus musculus [22] = experiment: Oral bioavailability in CD1 mouse assessed as (2R,3R,4R,5R,6R)-5-acetamido-4-amino-2,3-difluoro-6-((1R,2R)-1,2,3-trihydroxypropyl)tetrahydro-2H-pyran-2-carboxylic acid at 30 mg/kg; type: ADME, organism-based; conditions: in vivo
Mus musculus [23] = experiment: Prodrug conversion in CD1 mouse assessed as formation of (2R,3R,4R,5R,6R)-5-acetamido-4-amino-2,3-difluoro-6-((1R,2R)-1,2,3-trihydroxypropyl)tetrahydro-2H-pyran-2-carboxylic acid at 30 mg/kg, po; type: ADME, organism-based; set-up: dose 30 mg/kg, route oral; conditions: in vivo

concentration (Mus musculus [11]) [µM] | concentration (Mus musculus [12]) [µM] | remaining at 0.25 h, 10 µM [13] [%] | remaining at 1 h, 10 µM [14] [%] | remaining at 0.25 h, 10 µM [15] [%] | remaining at 1 h, 10 µM [16] [%] | Tmax (Mus musculus [19]) [h] | Cmax (Mus musculus [20]) [µM] | AUC (Mus musculus [21]) [µmol·min] | F (Mus musculus [22]) [%] | Compound | further results
 |  |  |  |  |  |  |  |  |  | CC(=O)N[C@@H]1[C@@H](N)[C@@H](F)[C@](F)(C(=O)O)O[C@H]1[C@H](O)[C@H](O)CO | concentration at 20 min [1]: 2.7 µM; concentration at 20 min [2]: 4.5 µM; concentration at 1 h [3]: 4.93 µM; concentration at 1 h [4]: 8.21 µM; half-life [5]: 3.27 h; Tmax [6]: 0.333 h; Cmax [7]: 2.8 µM; AUC (Mus musculus [8]): 320 µmol·min; AUC (Mus musculus [9]): 3394 µmol·min; bioavailability [10]: 3.1%
6.44 | 5.34 | 100 | 75 | 100 | 99 | 1 | 1.6 | 219 | 2.2 | COC(=O)[C@]1(F)O[C@@H]([C@H](O)[C@H](O)CO)[C@H](NC(C)=O)[C@@H](N)[C@H]1F | remaining at 0.25 h, 10 µM [17]: 90%; remaining at 1 h, 10 µM [18]: 6%
12.2 | 13 | 100 | 98 | 99 | 99 | 1 | 0.5 | 78 | 0.9 | CC(=O)N[C@@H]1[C@@H](N)[C@@H](F)[C@](F)(C(=O)OC(C)C)O[C@H]1[C@H](O)[C@H](O)CO | remaining at 0.25 h, 10 µM [17]: 100%; remaining at 1 h, 10 µM [18]: 87%
2.74 | 3.5 | 99 | 96 | 100 | 100 | 1 | 4.7 | 462 | 5.5 | CCCCCOC(=O)[C@]1(F)O[C@@H]([C@H](O)[C@H](O)CO)[C@H](NC(C)=O)[C@@H](N)[C@H]1F | remaining at 0.25 h, 10 µM [17]: 81%; remaining at 1 h, 10 µM [18]: 24%
3.41 | 4.67 | 100 | 100 | 100 | 100 | 1 | 1.2 | 736 | 9.3 | CC(=O)N[C@@H]1[C@@H](N)[C@@H](F)[C@](F)(C(=O)OCC2CCCCC2)O[C@H]1[C@H](O)[C@H](O)CO | remaining at 0.25 h, 10 µM [17]: 98%; remaining at 1 h, 10 µM [18]: 64%
5.69 | 4.39 | 53 | 25 | 88 | 74 |  |  |  |  | CC(=O)N[C@@H]1[C@@H](N)[C@@H](F)[C@](F)(C(=O)OCC(=O)N(C)C)O[C@H]1[C@H](O)[C@H](O)CO | 
9.93 | 11.3 | 90 | 74 | 98 | 86 | 1 | 2.7 | 293 | 3.9 | COC(=O)[C@]1(F)O[C@@H]([C@H](O)[C@H](O)COC(=O)OCC(C)C)[C@H](NC(C)=O)[C@@H](N)[C@H]1F | remaining at 0.25 h, 10 µM [17]: 81%; remaining at 1 h, 10 µM [18]: 17%
2.97 | 6.88 | 99 | 90 | 94 | 88 | 1 | 4.1 | 452 | 6.7 | CCCCCCCCOC(=O)OC[C@@H](O)[C@@H](O)[C@@H]1O[C@@](F)(C(=O)OC)[C@H](F)[C@H](N)[C@H]1NC(C)=O | 
2.57 | 4.86 |  |  |  |  |  |  |  |  | COC(=O)[C@]1(F)O[C@@H]([C@H](O)[C@H]2COC(C)(C)O2)[C@H](NC(C)=O)[C@@H](N)[C@H]1F | Drug metabolism (Mus musculus [23]): metabolite_detected
0.35 | 0.73 |  |  |  |  |  |  |  |  | COC(=O)[C@]1(F)O[C@@H]([C@H](O)[C@H]2COC(=O)O2)[C@H](NC(C)=O)[C@@H](N)[C@H]1F | 
1.68 | 2.69 |  |  |  |  |  |  |  |  | COC(=O)[C@]1(F)O[C@@H]([C@H](O)[C@H](O)COC(=O)OC(C)C)[C@H](NC(C)=O)[C@@H](N)[C@H]1F | 
2.1 | 6.01 |  |  |  |  |  |  |  |  | COC(=O)[C@]1(F)O[C@@H]([C@H](O)[C@H](O)COC(=O)OCC(C)(C)C)[C@H](NC(C)=O)[C@@H](N)[C@H]1F | 
0.62 | 0.75 |  |  |  |  |  |  |  |  | COC(=O)[C@]1(F)O[C@@H]([C@H](O)[C@H](O)COC(=O)OCC2c3ccccc3-c3ccccc32)[C@H](NC(C)=O)[C@@H](N)[C@H]1F | 
0.96 | 0.62 |  |  |  |  |  |  |  |  | COC(=O)[C@]1(F)O[C@@H]([C@H](O)[C@H](O)COP(=O)(OC)OC)[C@H](NC(C)=O)[C@@H](N)[C@H]1F | 
1 | 2.55 |  |  |  |  |  |  |  |  | CCOP(=O)(OCC)OC[C@@H](O)[C@@H](O)[C@@H]1O[C@@](F)(C(=O)OC)[C@H](F)[C@H](N)[C@H]1NC(C)=O | 
 |  |  |  |  |  |  |  |  |  | CCOC(=O)C1=C[C@@H](OC(CC)CC)[C@H](NC(C)=O)[C@@H](N)C1 [OSELTAMIVIR] | concentration at 20 min [1]: 8.41 µM; concentration at 1 h [3]: 13.3 µM; half-life [5]: 1.23 h; Tmax [6]: 0.5 h; Cmax [7]: 13.5 µM; AUC (Mus musculus [8]): 1706 µmol·min; bioavailability [10]: 64.5%
 |  |  |  |  |  |  |  |  |  | CC(=O)N[C@H]1[C@H]([C@H](O)[C@H](O)CO)OC(C(=O)O)=C[C@@H]1N=C(N)N [ZANAMIVIR] | concentration at 20 min [1]: 1.31 µM; concentration at 1 h [3]: 1.3 µM

Source: ChEMBL document CHEMBL3425436, “Assessing the oral bioavailability of difluorosialic acid prodrugs, potent viral neuraminidase inhibitors, using a snapshot PK screening assay” (Bioorg Med Chem Lett, 2015)
